Results reported in patent US11970474B2, “Substituted benzodiazoles and use thereof in therapy” (THOMAS HELLEDAYS STIFTELSE FÖR MEDICINSK FORSKNING, priority 2018, dated 2024).

Legend:
[1] = tested on: BALB/c mice; assay: Recruitment of neutrophils to mouse airways; type: in vivo; conditions: 25 mg/kg intraperitoneally; intranasal TNFα or lipopolysaccharide; lungs lavaged after 16 h
Method: Six- to 8-wk-old BALB/c mice (˜20 g; Harlan Sprague Dawley, San Diego, CA) were injected 25 mg/kg intraperitoneally 3 h before and at the time of intranasal TNF-α challenge essentially as described in Ba, Xueqing, et al., The Journal of Immunology, 192(5), 2384-94 (2014). To evaluate inflammation, bronchoalveolar lavage fluids (BALF) were collected 16 h after challenge, processed, cytospin slides were stained with Wright-Giemsa, and the number of neutrophils was counted. All experiments were performed according to the National Institutes of Health Guidelines for the Care and Use of Laboratory Animals.

[2] = tested on: H460; assay: Colony formation survival assay; type: cell-based; conditions: cancer cell line H460; 7-11 days
Method: (§1) Example compounds or vehicle are transferred to 6-well plates. Cell lines to be tested are seeded at a density of 200-500 cells/well in suitable media and allowed to grow for 7-11 days in at 5% CO2, 37° C. The medium is removed and replaced with 4% w/v methylene blue in methanol. Following extensive washes in tap water and air drying, […] with more than 50 […] are counted, as described in Franken, Nicolaas A. P., et al., Nature Protocols, 1(5), 2315-19 (2006).

[3] = tested on: ACHN; assay: Colony formation survival assay; type: cell-based; conditions: cancer cell line ACHN; 7-11 days
Method: as §1

O=C(Nc1ccc(I)cc1)N1CCC(n2c(=O)[nH]c3c(Br)cccc32)CC1 [Example 13, 4-(4-Bromo-2-oxo-2,3-dihydro-1H-1,3-benzodiazol-1-yl)-N-(4-iodophenyl)piperidine-1-carboxamide]
recruitment of neutrophils to mouse airways [1]: reduces recruitment of neutrophils
colony formation [2]: inhibits colony formation
colony formation [3]: inhibits colony formation
